Test results taken from the SangsterLogP compilation.

experiment: method code SF-CR, from DOI: 10.1016/s0008-6215(00)84247-0, PMID: 18283; settings: pH 7.5

Compound	logD
CCS[C@@H]1O[C@H](CO)[C@H](O)[C@H](O)[C@H]1O	-1.51
CCCCS[C@@H]1O[C@H](CO)[C@H](O)[C@H](O)[C@H]1O	-0.54
CC(C)S[C@@H]1O[C@H](CO)[C@H](O)[C@H](O)[C@H]1O	-1.26
CCCS[C@@H]1O[C@H](CO)[C@H](O)[C@H](O)[C@H]1O	-1.18
CCOC1O[C@H](CO)[C@H](O)[C@H](O)[C@H]1O (stereo in doubt)	-2.28
CCCO[C@@H]1O[C@H](CO)[C@H](O)[C@H](O)[C@H]1O	-1.66

The next lines start with the values.

logD	Compound
0.86	CCCCCCS[C@@H]1O[C@H](CO)[C@H](O)[C@H](O)[C@H]1O
1.5	CCCCCCCS[C@@H]1O[C@H](CO)[C@H](O)[C@H](O)[C@H]1O
0.16	CCCCCCO[C@@H]1O[C@H](CO)[C@H](O)[C@H](O)[C@H]1O
0.73	CCCCCCCO[C@@H]1O[C@H](CO)[C@H](O)[C@H](O)[C@H]1O
2.13	CCCCCCCCS[C@@H]1O[C@H](CO)[C@H](O)[C@H](O)[C@H]1O
0.39	CCCCCS[C@@H]1O[C@H](CO)[C@H](O)[C@H](O)[C@H]1O
-0.8	CCCCCOC1C(O)C(O)OC(CO)C1O (stereo unspecified)
-0.18	CCCCCOC1C(O)C(S)OC(CO)C1O (stereo unspecified)
-1.04	CCCCO[C@@H]1O[C@H](CO)[C@H](O)[C@H](O)[C@H]1O
-0.42	CCCCCO[C@@H]1O[C@H](CO)[C@H](O)[C@H](O)[C@H]1O
1.46	CCCCCCCCO[C@@H]1O[C@H](CO)[C@H](O)[C@H](O)[C@H]1O

experiment: method code SF-AS, from DOI: 10.1016/s0008-6215(00)84247-0, PMID: 18283; settings: pH 7.5

logD	Compound
-0.1	OC[C@H]1O[C@@H](SCCc2ccccc2)[C@H](O)[C@@H](O)C1O (stereo in doubt)
-0.47	OC[C@H]1O[C@@H](SCc2ccccc2)[C@H](O)[C@@H](O)[C@H]1O
-0.56	OC[C@H]1O[C@@H](Sc2ccccc2)[C@H](O)[C@@H](O)[C@H]1O
0.38	OCC1OC(SCCCc2ccccc2)C(O)C(O)C1O (stereo unspecified)
